# Laboratory results reported in patent publication US20050019825A9, “Common ligand mimics: pseudothiohydantoins” (priority 2002, published 2005).
# Target: dihydrodipicolinate reductase (DHPR) (Escherichia coli, UniProt P04036)
# Experiment: Screening of bi-ligands for DHPR (Example 25), kinetic assay at 340 nm
# Format: biochemical
# Conditions: Cibacron Blue at 2.58 μM, Example 25; read-out: inhibition of DHPR, positive control
# Experimental: Screening of Biligands for Binding to Dihydrodipicolinate Reductase (DHPR)
# This example describes the screening of bi-ligands having common ligand mimics for binding activity to dihydrodipicolinate reductase (DHPR).
# Bi-ligands were produced by the methods of Examples 16 to 18. The bi-ligands were screened for binding to DHPR.
# Stock solutions of each of the reagents were prepared in the following concentrations. Dilutions of the stock solutions were prepared prior to running the assay in the concentrations indicated below. Dilution of DHPR was prepared in 10 mM HEPES at a pH of 7.4. DHPS was not diluted and was stored in eppindorf tubes.
# The L-ASA solution was prepared in the following manner. 180 μM stock solution of ASA was prepared. 100 μl of the ASA stock was mixed with 150 μl of concentrated NaHCO3 and 375 μl of […]. For use in the assay, 28.8 mM L-ASA equal 625 μl of the solution. The L-ASA stock solution was kept at a temperature of −20° C. After dilution, the pH of the 28.8 mM solution was checked and maintained between 1 and 2.
# First, the DHPS reaction was monitored at 340 nm prior to and after addition of the inhibitor to detect background reaction with the inhibitor. The solution for background detection was a 945 μl solution containing 0.1 HEPES (pH 7.8), 1 mM pyruvate, 6 μM NADPH, 40 μM L-ASA, and 7 μl of 1 mg/ml DHPS at 25° C. in the volumes provided above. The sample solution was then mixed and incubated for 10 minutes. Next, 500 nM solutions of the inhibitors and enough DMSO to provide a final DMSO concentration of 5% were added. The solution was mixed and incubated for an additional 6 minutes.
# In DHPR samples, 5 μl of the diluted DHPR enzyme were added. The sample was mixed for 20 seconds and then the reaction was run for 10 minutes. After a 50 second lag, the samples were read in a Cary spectrophotometer at 340 nm. Reading of the samples was continued until 300 seconds. Cuvette #1 contained the control reaction (no inhibitor), and cuvette #2 contained the positive control reaction in which Cibacron Blue at 2.58 μM was substituted for inhibitor to yield 70 to 80% inhibition. The substrate and NADPH or NAHD were kept near their Km values.
# dihydrodipicolinate reductase (DHPR), sequence (P04036 whole entry): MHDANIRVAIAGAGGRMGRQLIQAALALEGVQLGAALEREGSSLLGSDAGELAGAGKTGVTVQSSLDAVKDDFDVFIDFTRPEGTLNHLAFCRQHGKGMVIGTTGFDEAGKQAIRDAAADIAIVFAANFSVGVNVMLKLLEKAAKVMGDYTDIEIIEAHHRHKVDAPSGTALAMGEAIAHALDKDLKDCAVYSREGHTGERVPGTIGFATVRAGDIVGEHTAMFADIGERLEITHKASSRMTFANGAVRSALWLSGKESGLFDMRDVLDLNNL
smiles,measurement,value
"Nc1c(S(=O)(=O)O)cc(Nc2ccc(Nc3nc(Cl)nc(Nc4ccccc4S(=O)(=O)O)n3)c(S(=O)(=O)O)c2)c2c1C(=O)c1ccccc1C2=O [Cibacron Blue, reference compound]",inhibition at 2.58 µM,70 to 80%
